Test results reported in a compilation of properties of binary mixtures (doi:10.1016/j.jct.2017.05.012).

Test: xn = mol fraction of the nth substance listed
Conditions: 101 kPa

CCCCCCCCOS(=O)(=O)[O-].CC[n+]1ccn(C)c1 + O
Conditions | electrical conductivity [S/m] | viscosity [mPa·s]
268.15 K, x2 = 0.7822 | 0.277 | –
268.15 K, x2 = 0.8104 | 0.331 | –
268.15 K, x2 = 0.8384 | 0.406 | –
273.15 K, x2 = 0.7822 | 0.355 | –
273.15 K, x2 = 0.8104 | 0.417 | –
273.15 K, x2 = 0.8384 | 0.529 | –
278.15 K, x2 = 0.7822 | 0.447 | –
278.15 K, x2 = 0.8104 | 0.522 | –
278.15 K, x2 = 0.8384 | 0.653 | –
283.15 K, x2 = 0.7822 | 0.552 | –
283.15 K, x2 = 0.8104 | 0.642 | –
283.15 K, x2 = 0.8237 | 0.677 | –
283.15 K, x2 = 0.8384 | 0.799 | –
288.15 K, x2 = 0.8104 | 0.772 | –
288.15 K, x2 = 0.8237 | 0.819 | –
288.15 K, x2 = 0.8384 | 0.956 | –
290.15 K, x2 = 0.8384 | 1.02 | –
291.15 K, x2 = 0.8237 | 0.91 | –
291.15 K, x2 = 0.8384 | 1.05 | –
292.15 K, x2 = 0.8104 | 0.89 | –
293.15 K, x2 = 0.7822 | 0.801 | –
293.15 K, x2 = 0.8104 | 0.921 | –
293.15 K, x2 = 0.8237 | 0.971 | –
293.15 K, x2 = 0.8384 | 1.13 | –
294.15 K, x2 = 0.8104 | 0.951 | –
296.15 K, x2 = 0.8237 | – | 73.9
297.15 K, x2 = 0.7822 | – | 76.7
297.15 K, x2 = 0.8384 | – | 62.9
298.15 K, x2 = 0.7822 | 0.949 | 72.6
298.15 K, x2 = 0.8104 | 1.07 | 67.2
298.15 K, x2 = 0.8384 | 1.31 | 59.6
299.15 K, x2 = 0.8237 | – | 60.2
300.15 K, x2 = 0.8237 | – | 57.1
303.15 K, x2 = 0.7822 | 1.11 | 55.9
303.15 K, x2 = 0.8104 | 1.25 | 51.7
308.15 K, x2 = 0.7822 | – | 43.7
308.15 K, x2 = 0.8104 | – | 40.4
308.15 K, x2 = 0.8237 | – | 38.33
308.15 K, x2 = 0.8384 | – | 36.02
313.15 K, x2 = 0.7822 | 1.47 | 34.66
313.15 K, x2 = 0.8237 | 1.73 | –
313.15 K, x2 = 0.8384 | 1.98 | 28.64
318.15 K, x2 = 0.8237 | – | 24.55
323.15 K, x2 = 0.7822 | 1.89 | 22.8
323.15 K, x2 = 0.8104 | 2.09 | 21.03
323.15 K, x2 = 0.8384 | 2.55 | 18.8
328.15 K, x2 = 0.8237 | – | 16.51
333.15 K, x2 = 0.8104 | 2.66 | 14.42
333.15 K, x2 = 0.8384 | 3.13 | 12.91
338.15 K, x2 = 0.8237 | – | 11.57
343.15 K, x2 = 0.8104 | 3.17 | 10.28
343.15 K, x2 = 0.8237 | 3.28 | –
343.15 K, x2 = 0.8384 | 3.76 | 9.26
353.15 K, x2 = 0.8237 | 3.77 | –
358.15 K, x2 = 0.8237 | 3.99 | –
363.15 K, x2 = 0.8237 | 4.35 | –
